Laboratory results from paper PMC8659034, “Natural Xanthine Oxidase Inhibitor 5-O-Caffeoylshikimic Acid Ameliorates Kidney Injury Caused by Hyperuricemia in Mice” (Molecules, 2021).

How the values were obtained:
xanthine oxidase (XOD) [1] = target: T1, xanthine oxidase (XOD) (Bos taurus, UniProt P80457); assay: spectrophotometric uric acid formation assay at […] nm; reversibility plots; assay type: biochemical
T1 construct: gene XDH

xanthine oxidase (XOD) [2] = target: T1, xanthine oxidase (XOD); assay: spectrophotometric uric acid formation assay at […] nm, % inhibition at […]; assay type: biochemical; conditions: read-out: % inhibition at 100 μg/mL

T1 sequence (P80457 2-1332): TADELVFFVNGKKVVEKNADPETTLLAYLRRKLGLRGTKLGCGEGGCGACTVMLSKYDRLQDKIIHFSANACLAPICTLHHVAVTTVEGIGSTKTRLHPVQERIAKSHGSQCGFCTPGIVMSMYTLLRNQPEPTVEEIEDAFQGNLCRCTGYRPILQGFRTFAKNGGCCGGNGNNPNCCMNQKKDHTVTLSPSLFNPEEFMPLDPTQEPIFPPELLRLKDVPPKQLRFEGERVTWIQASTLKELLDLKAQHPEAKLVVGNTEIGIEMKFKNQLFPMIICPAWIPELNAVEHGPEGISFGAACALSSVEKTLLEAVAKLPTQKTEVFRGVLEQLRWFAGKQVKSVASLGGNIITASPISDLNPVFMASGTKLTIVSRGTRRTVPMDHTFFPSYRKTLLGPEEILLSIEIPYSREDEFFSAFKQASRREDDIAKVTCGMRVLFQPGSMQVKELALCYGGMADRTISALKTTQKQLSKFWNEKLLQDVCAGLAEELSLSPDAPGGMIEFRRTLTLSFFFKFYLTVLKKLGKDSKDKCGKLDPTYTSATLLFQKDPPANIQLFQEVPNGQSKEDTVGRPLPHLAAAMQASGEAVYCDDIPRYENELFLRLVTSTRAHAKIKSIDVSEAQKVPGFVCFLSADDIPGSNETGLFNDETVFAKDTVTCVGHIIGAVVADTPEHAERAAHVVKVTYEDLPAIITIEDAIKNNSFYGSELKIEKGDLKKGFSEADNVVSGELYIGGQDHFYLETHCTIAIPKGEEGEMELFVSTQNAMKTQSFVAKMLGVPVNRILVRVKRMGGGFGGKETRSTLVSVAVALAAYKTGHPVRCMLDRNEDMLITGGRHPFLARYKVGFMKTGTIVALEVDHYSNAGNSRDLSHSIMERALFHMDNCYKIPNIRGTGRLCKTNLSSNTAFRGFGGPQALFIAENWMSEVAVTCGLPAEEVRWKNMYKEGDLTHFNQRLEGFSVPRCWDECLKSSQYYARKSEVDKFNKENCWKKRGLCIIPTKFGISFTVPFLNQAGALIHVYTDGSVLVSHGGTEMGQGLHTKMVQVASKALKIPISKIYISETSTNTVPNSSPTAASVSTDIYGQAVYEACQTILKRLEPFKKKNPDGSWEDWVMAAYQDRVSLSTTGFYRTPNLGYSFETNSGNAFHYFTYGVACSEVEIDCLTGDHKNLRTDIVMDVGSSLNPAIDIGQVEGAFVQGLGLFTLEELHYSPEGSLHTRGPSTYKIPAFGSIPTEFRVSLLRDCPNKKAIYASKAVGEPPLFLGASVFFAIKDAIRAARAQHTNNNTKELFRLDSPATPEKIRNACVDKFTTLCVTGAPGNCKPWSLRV

| IC50 (xanthine oxidase (XOD) [1]) [µM] | Structure (SMILES) | inhibition at 100 µg/mL (xanthine oxidase (XOD) [2]) [%] |
| --- | --- | --- |
| 14 | O=C(/C=C/c1ccc(O)c(O)c1)O[C@@H]1CC(C(=O)O)=C[C@@H](O)[C@H]1O [compound 1, 5-O-caffeoylshikimic acid] | – |
| – | O=c1c(O)c(-c2ccc(O)c(O)c2)oc2cc(O)cc(O)c12 [compound 3, quercetin] | 82.1 |
| – | C[C@@H]1O[C@@H](O[C@H]2C(=O)c3c(O)cc(O)cc3O[C@@H]2c2ccc(O)c(O)c2)[C@H](O)[C@H](O)[C@H]1O [compound 6, astilbin] | 33.2 |
